Tests used:
[1] = tested on: UM-SCC10B head and neck metastases cells; assay: MTT antiproliferative assay, UM-SCC10B; format: cell-based; conditions: Table 1A, 48 h, read-out: Concentration required to reduce the viability of cells by 50%, UM-SCC10B
Protocol: (§1) To evaluate antiproliferative properties of the compounds of Formula I, mitochondrial dehydrogenase activities were measured using the MTT assay. The cell lines were prepared by trypsinizing and seeding […] cells per well into microplates. All compounds were reconstituted in dimethyl sulfoxide (DMSO) at a concentration of either 100 mM or 25 mM prior to treatment. The cells were grown for 24 hrs before treatment at concentrations ranging from 0.004 to 100 microM and incubated for 48 hrs in 200 microL media. 20 microL of MTT reagent in serum free medium (5 mg/mL) was added to each well and incubated further for 2 hrs. Media was removed and the resulting formazan crystals were re-solubilized in 100 microL of DMSO and the optical density (OD) was measured using a Thermomax Molecular Device plate reader at a wavelength of 490 nm. The experiments were performed in quadruplicate and repeated at least twice for each compound per cell line. Cells treated with 0.1% DMSO were used as a negative control, while phenyl arsine oxide (PAO) was used as a positive killing control.

[2] = tested on: UM-SCC22B head and neck metastases cells; assay: MTT antiproliferative assay, UM-SCC22B; format: cell-based; conditions: Homo sapiens, UMSCC22B, Table 1A, 48 h, read-out: Concentration required to reduce the viability of cells by 50%, UM-SCC22B
Protocol: as §1

SKMEL-28 melanoma cells = assay: MTT antiproliferative assay, SKMEL-28; format: cell-based, human; conditions: Homo sapiens, SK-MEL-28; Table 2; 48 h, MTT; read-out: GI50 in vitro values, SKMEL-28
Protocol: as §1
(§2) Human cancer cell lines were obtained from the American Type Culture Collection (ATCC, Manassas, Va., USA), the European Collection of Cell Culture (ECACC, Salisbury, UK) and the Deutsche Sammlung von Mikroorganismen and Zellkulturen (DSMZ, Braunschweig, Germany). Human cervical adenocarcinoma HeLa cells were cultured in DMEM supplemented with 10% fetal bovine serum (FBS). Human mammary carcinoma MCF-7 cells were cultured in RPMI supplemented with 10% FBS. The U87 and U373 cells were cultured in DMEM culture medium (Lonza code 12-136F, Vervier, Belgium), while the SKMEL-28 and A549 cells were cultured in RPMI culture medium (Lonza; code 12-115F) supplemented with 10% heat-inactivated FBS (Lonza, FBS South America code DE14-801F). […] All cell lines were cultured in T25 flasks, maintained and grown at 37° C., 95% humidity, 5% CO2.
(§3) To evaluate antiproliferative properties of the synthesized compounds, the MTT assay was used. The cell lines were assessed by trypsinizing each cell line and seeding 4×10^3 cells per well into 96-well plates. All compounds were dissolved in DMSO at a concentration of either 100 mM or 50 mM prior to cell treatment. The cells were grown for 24 h and then treated with compounds at concentrations ranging from 0.04 to 100 μM and incubated for 48 h in 200 μL media. 20 μL of MTT reagent in serum free medium (5 mg/mL) was added to each well and incubated further for 2 h. Media was removed, and the resulting formazan crystals were re-solubilized in 200 μL of DMSO. A490 was measured using a Thermomax Molecular Device plate reader. The experiments were performed in quadruplicate and repeated at least twice for each compound per cell line. […]

[3] = tested on: HeLa cervical adenocarcinoma cells; assay: MTT antiproliferative assay, HeLa; format: cell-based; conditions: Homo sapiens, Table 1, 48 h treatment, MTT, ± SD, read-out: GI50 in vitro Values, HeLa
Procedure, shortened: (§4)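 Cells were seeded at 4×10^3 per well, grown 24 h, then treated at 0.04–100 μM for 48 h; HeLa in DMEM and MCF-7 in RPMI, each with 10% FBS. MTT for 2 h, formazan dissolved in DMSO, A490 read; quadruplicate, at least two repeats, 0.1% DMSO vehicle control and 1 μM phenyl arsine oxide as positive killing control.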

[4] = tested on: MES-SA uterine sarcoma cells; assay: MTT antiproliferative assay, MES-SA; format: cell-based; conditions: Homo sapiens, Table 3, parental drug-responsive cell line, read-out: GI50 in vitro Values, MES-SA
Protocol: Human T-cell leukemia cell line Jurkat (ATCC TIB-152, E6-1 clone) was cultured in RPMI-1640 (Invitrogen) supplemented with 10% FBS (Invitrogen), 100 mg/L penicillin G, 100 mg/L streptomycin, 1.0 mM sodium pyruvate, 1.5 g/L sodium bicarbonate, and 4.5 g/L glucose (all from Sigma). Human cervical cancer cell line HeLa (ATCC S3) was cultured in DMEM (Invitrogen) supplemented with 10% FBS, 100 mg/L penicillin G, and 100 mg/L streptomycin. MCF-7 (human mammary carcinoma) cells were cultured in DMEM supplemented with 1.0 mM sodium pyruvate, 1% GlutaMax™-1 (Invitrogen), 100 μg/mL penicillin, 100 μg/mL streptomycin, and 10% FBS. Human uterine sarcoma MES-SA and MES-SA/Dx5 cells were cultured in RPMI-1640 medium supplemented with 10% FBS, 100 mg/L penicillin G and 100 mg/L streptomycin. All cells were incubated at 37° C. in a humidified atmosphere with 5% CO2. […]
To evaluate antiproliferative properties of the compounds of Formula I, mitochondrial dehydrogenase activities were measured using the MTT assay. […] Media was removed and the resulting formazan crystals were re-solubilized in 100 microL of DMSO and the optical density (OD) was measured using a Thermomax Molecular Device plate reader at a wavelength of 490 nm. […]
The cells of such tumors are referred to as multidrug resistant (MDR). Thus, we assessed the compounds of Formula I for antiproliferative activity in an MDR cancer cell line. […]

[5] = tested on: MCF-7 mammary gland adenocarcinoma cells; assay: MTT antiproliferative assay, MCF-7; format: cell-based; conditions: Homo sapiens, MCF7; Table 1; 48 h treatment, MTT, ± SD; read-out: GI50 in vitro Values, MCF-7
Procedure, shortened: as §4

[6] = tested on: A549 non-small-cell lung cancer cells; assay: MTT antiproliferative assay, A549; format: cell-based; conditions: Homo sapiens, Table 2, 48 h, read-out: GI50 in vitro values, A549
Protocol: as §1, §2
To evaluate antiproliferative properties of the synthesized compounds, the MTT assay was used. The cell lines were assessed by trypsinizing each cell line and seeding 4×10^3 cells per well into 96-well plates. All compounds were dissolved in DMSO at a concentration of either 100 mM or 50 mM prior to cell treatment. The cells were grown for 24 h and then treated with compounds at concentrations ranging from 0.04 to 100 μM and incubated for 48 h in 200 μL media. 20 μL of MTT reagent in serum free medium (5 mg/mL) was added to each well and incubated further for 2 h. Media was removed, and the resulting formazan crystals were re-solubilized in 200 μL of DMSO. A490 was measured using a Thermomax Molecular Device plate reader. The experiments were performed in quadruplicate and repeated at least twice for each compound per cell line. Cells treated with 0.1% DMSO were used as a control, and 1 μM phenyl arsine oxide (PAO) was used as a positive killing control.

[7] = tested on: UM-SCC10A head and neck cancer cells; assay: MTT antiproliferative assay, UM-SCC10A; format: cell-based; conditions: UMSCC-10A, Table 1A, 48 h, read-out: Concentration required to reduce the viability of cells by 50%, UM-SCC10A
Protocol: as §1

U373 glioblastoma cells = assay: MTT antiproliferative assay, U373; format: cell-based, human; conditions: Homo sapiens, U373 MG; Table 2; 48 h, MTT; read-out: GI50 in vitro values, U373
Protocol: as §1, §2, §3

[8] = tested on: MES-SA/Dx5 uterine sarcoma cells (overexpress p-gp); assay: MTT antiproliferative assay, MDR MES-SA/Dx5; format: cell-based, human
Protocol: Human T-cell leukemia cell line Jurkat (ATCC TIB-152, E6-1 clone) was cultured in RPMI-1640 (Invitrogen) supplemented with 10% FBS (Invitrogen), 100 mg/L penicillin G, 100 mg/L streptomycin, 1.0 mM sodium pyruvate, 1.5 g/L sodium bicarbonate, and 4.5 g/L glucose (all from Sigma). Human cervical cancer cell line HeLa (ATCC S3) was cultured in DMEM (Invitrogen) supplemented with 10% FBS, 100 mg/L penicillin G, and 100 mg/L streptomycin. MCF-7 (human mammary carcinoma) cells were cultured in DMEM supplemented with 1.0 mM sodium pyruvate, 1% GlutaMax™-1 (Invitrogen), 100 μg/mL penicillin, 100 μg/mL streptomycin, and 10% FBS. Human uterine sarcoma MES-SA and MES-SA/Dx5 cells were cultured in RPMI-1640 medium supplemented with 10% FBS, 100 mg/L penicillin G and 100 mg/L streptomycin. All cells were incubated at 37° C. in a humidified atmosphere with 5% CO2. The other cell lines were maintained in a similar fashion as previously described.
as §1
The cells of such tumors are referred to as multidrug resistant (MDR). Thus, we assessed the compounds of Formula I for antiproliferative activity in an MDR cancer cell line. This was done using the uterine sarcoma cells, MES-SA/Dx5, which overexpress p-gp. The parental drug-responsive MES-SA cell line was used as control.

[9] = tested on: Hs683 anaplastic oligodendroglioma cells; assay: MTT antiproliferative assay, Hs683; format: cell-based; conditions: Homo sapiens, Hs 683, Table 2, 48 h, read-out: GI50 in vitro values, Hs683
Protocol: as §1

B16F10 melanoma cells = assay: MTT antiproliferative assay, B16F10; format: cell-based; conditions: Mus musculus, B16-F10, Table 2, 48 h, read-out: GI50 in vitro values, B16F10
Protocol: as §1

GI50 (SKMEL-28 melanoma cells): 20 nM
GI50 [3]: 95 ± 40 nM
GI50 [5]: 95 ± 10 nM
GI50 [6]: 30 nM
IC50 [7]: 90 nM
GI50 (U373 glioblastoma cells): 30 nM
GI50 ([8]; Homo sapiens, MES-SA/Dx5, Table 3, MDR cell line, read-out: GI50 in vitro Values, MES-SA/Dx5): 394 ± 10 nM
GI50 [9]: 20 nM
GI50 (B16F10 melanoma cells): 50 nM
SMILES: O=C(c1ccccc1)c1[nH]c2[nH]cnc(=O)c2c1-c1cc(Br)cc(Br)c1 [Rig8, 6-Benzoyl-5-(3,5-dibromophenyl)-1H-pyrrolo[2,3-d]pyrimidin-4(7H)-one]
IC50 [1]: 100 nM
IC50 [2]: 20 nM
GI50 [4]: 81 ± 6 nM
variation in the sensitivities of the parental and MDR cell lines ([8]; MES-SA/Dx5 vs MES-SA, in words): only a small variation

From patent publication US9334280B2, “Synthetic rigidin analogues as anticancer agents, salts, solvates and prodrugs thereof, and method of producing same” (New Mexico Technical Research Foundation, priority 2012, dated 2016)
